Source: publication PMC12388506, “Preclinical Evaluation of 2-Aminobenzothiazole Derivatives: In Silico, In Vitro, and Preliminary In Vivo Studies as Diabetic Treatments and Their Complications” (Molecules, 2025)

Experiments:
[1] = system: STZ-HFD-induced T2D Wistar rats; assay: 24-element blood chemistry in STZ-HFD-induced T2D model; assay type: in vivo, rat; parameters: GGT / TBA / AMY / TG / T-CHOL / GLU: unit not given here; conditions: for ALP / ALT / AST / CK: in U/L (unit assumed); for ALB / GLO / TP: in g/dL (unit assumed); for BUN / CRE / Ca / Mg / P / TBIL / UREA: in mg/dL (unit assumed); for tCO2: in mmol/L (unit assumed); for TP: mean ± SEM, n = 4
Experimental: (§1) Treatments were administered daily as described above, adjusting the dose according to the weight of the individuals. Fasting glucose levels (6 h fast) were monitored every 7 days until the end of treatments at week 10 (Figure 14). Halfway through the last week of treatment, the OGTT was performed, administering a dose of 1.5 g/Kg of glucose orally and subsequently monitoring capillary blood glucose at 0, 15, 30, 60, 90, and 120 min [62]. In addition, a 24-element blood chemistry was measured in a Celercare V automated dry chemistry analyzer (Tianjin MNCHIP Technologies Co., Ltd., Tianjin, China) at the beginning and end of the model. For this purpose, the blood samples were obtained from the tail of the rat.
(§2) At the end of the study, animals fasted for 12 h and were taken to a humane endpoint, where blood samples were obtained. These were kept at room temperature for 30 min and then centrifuged at 4000 RPM for 15 min at 4 °C. Finally, the serum was used to perform 24-element blood chemistry and quantify Trolox-equivalent TAC [86], TNF-α [87], and IL-6 levels using commercial kits from Merck (Darmstadt, Germany), Sigma-Aldrich (St. Louis, MO, USA), Cat. No. MAK334-1KT, RAB0479-1KT, and RAB0311-1KT, respectively. In addition, insulin was quantified using the Rat Ins1/Insulin ELISA Kit, from Sigma-Aldrich, No. Cat. RAB0904-1KT [89] to determine the HOMA-IR index. All kits were performed according to the manufacturer’s instructions without modifications.

ALR2 enzyme [2] = target: T1, ALR2 enzyme (Homo sapiens, UniProt P15121); assay: ALR2 activity assay kit (ab273276), inhibition; assay type: biochemical;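 as to relative ALR2 inhibition: inhibition calculated from the rate of NADPH cofactor consumption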
T1 construct: purchased ab273276
Experimental: The obtained dose–response curve had concentrations of 10 μM, 5 μM, 500 nM, 50 nM, and 5 nM.

[3] = system: STZ-HFD-induced T2D Wistar rats; assay: Subchronic evaluation in STZ-HFD-induced T2D model; assay type: in vivo, rat; parameters: HbA1c: unit not given here
Experimental: In vivo experiments were conducted in an acute and a subchronic model, where Wistar rats (180–220 g) were used. The study covered a total period of 10 weeks and was carried out under the Mexican Standard, and the “Guide for the Care and Use of Laboratory Animals” of the National Research Council and Health Institutes was followed.
At first, animals were housed in polypropylene cages under conditions of controlled temperature (20–25 °C), relative humidity (36–60%), and light/dark cycles, with water ad libitum. Before starting the experiment, they were given a one-week acclimatization period to adapt to their new habitat. Once finalized, animals were fed an HFD for 3 weeks to generate insulin resistance.
After this period, the animals fasted for 12 h and then were administered intraperitoneally with a single dose of 35 mg/Kg of STZ dissolved in a buffer of 0.1 M citrate, pH 4.5 (prepared on the same day of administration). Once administered, the hypercaloric diet was maintained, and 10% sucrose solution was placed on demand for 2 days.
One week after administration, postprandial blood glucose levels were measured by venipuncture using a glucometer. Those animals that maintained a glucose level between 200 and 400 mg/dL were included in the study.
as §1, §2

ABTS assay = assay: ABTS assay
Experimental: All synthesized compounds were evaluated at 30 μM, 50 μM, 70 μM, 90 μM, and 110 μM under two of the most widely used methods in research to directly measure the antioxidant and anti-radical intrinsic capacity, FRAP, and ABTS assay, which were validated by a dose–response curve of 5-ASA as a reference. In the same way, these tests were carried out in triplicate using an assay kit (from Pharmaceutical and Biotechnological Innovation-Services) according to the manufacturer’s instructions.

[4] = system: STZ-HFD-induced T2D Wistar rats; assay: Ex vivo serum total antioxidant capacity (Trolox equivalent); assay type: in vivo, rat
Experimental: as §2

ALR2 enzyme [5] = target: T1, ALR2 enzyme; assay: ALR2 activity assay kit (ab273276), inhibition; assay type: biochemical; conditions: Inhibitor concentration
IL-6 = assay: Ex vivo serum IL-6 quantification; assay type: in vivo, rat
Experimental: as §2

[6] = after the induction of T2D, before treatment
[7] = Table S11, After 5 weeks of treatment
[8] = serum, end of treatment, mean ± SEM, n = 4

Compound: COC(=O)[C@H](Cc1ccccc1)N/C(=N\c1nc2ccccc2s1)SC [8d, Methyl (E)-((benzo[d]thiazol-2-ylimino)(methylthio)methyl)-L-phenylalaninate]
- triglycerides (TG) ([1]; After 5 weeks of treatment): significantly reducing TG
- A/G ([1]; Final): 1.28 ± 0.03
- AMY ([1]; Final): 436.50 ± 29.54
- AST/ALT ([1]; Final): 4.42 ± 0.79
- BUN/CRE ([1]; Final): 28.50 ± 6.00
- GGT ([1]; Final): 0.65 ± 0.18
- GLU ([1]; Final): 172.75 ± 50.56
- T-CHOL ([1]; Final): 90.00 ± 16.06
- TBA ([1]; Final): 54.33 ± 31.99
- TG ([1]; Final): 177.90 ± 82.61
- ALP ([1]; Final): 210.25 ± 109.57
- ALT ([1]; Final): 85.50 ± 27.46
- AST ([1]; Final): 319.75 ± 51.70
- CK ([1]; Final): > 3000
- ALB ([1]; Final): 4.00 ± 0.16
- GLO ([1]; Final): 3.13 ± 0.13
- BUN ([1]; Final): 17.78 ± 4.29
- CRE ([1]; Final): 0.62 ± 0.03
- Ca ([1]; Final): 9.82 ± 0.48
- Mg ([1]; Final): 2.34 ± 0.09
- P ([1]; Final): 7.89 ± 0.55
- TBIL ([1]; Final): 0.25 ± 0.05
- UREA ([1]; Final): 38.10 ± 9.11
- tCO2 ([1]; Final): 18.00 ± 0.82
- TP ([1]; Final): 7.13 ± 0.28
- A/G ([1]; Initial): 1.3 ± 0.11
- AMY ([1]; Initial): 361.25 ± 6.54
- AST/ALT ([1]; Initial): 2.16 ± 0.40
- BUN/CRE ([1]; Initial): 21.50 ± 2.60
- GGT ([1]; Initial): 1.33 ± 0.38
- GLU ([1]; Initial): 188.50 ± 31.74
- T-CHOL ([1]; Initial): 105.5 ± 19.94
- TBA ([1]; Initial): 79.85 ± 13.64
- TG ([1]; Initial): 291.35 ± 160.5
- ALP ([1]; Initial): 287.75 ± 31.54
- ALT ([1]; Initial): 68.75 ± 11.67
- AST ([1]; Initial): 135.75 ± 8.14
- CK ([1]; Initial): 641.75 ± 63.37
- ALB ([1]; Initial): 3.78 ± 0.08
- GLO ([1]; Initial): 2.95 ± 0.22
- BUN ([1]; Initial): 11.94 ± 1.46
- CRE ([1]; Initial): 0.56 ± 0.00
- Ca ([1]; Initial): 9.45 ± 0.16
- Mg ([1]; Initial): 2.18 ± 0.07
- P ([1]; Initial): 6.83 ± 0.64
- TBIL ([1]; Initial): 0.31 ± 0.05
- UREA ([1]; Initial): 25.65 ± 3.10
- tCO2 ([1]; Initial): 15.25 ± 0.63
- TP ([1]; Initial): 6.73 ± 0.20
- hepatotoxicity ([1]; subchronic treatment): without inducing hepatotoxicity
- concentrations at which ALR2 was inhibited (ALR2 enzyme [2]): below 10 µM
- concentration dependence of ALR2 inhibition (IC50 not calculable) (ALR2 enzyme [2]; 10 μM to 5 nM): did not show a concentration-dependent response
- relative ALR2 inhibition (ALR2 enzyme [2]; Inhibitor concentration 5 nm): 93.590%
- relative ALR2 inhibition (ALR2 enzyme [2]; Inhibitor concentration 50 nm): 91.644%
- relative ALR2 inhibition (ALR2 enzyme [2]; Inhibitor concentration 500 nm): 86.494%
- relative ALR2 inhibition (ALR2 enzyme [2]; Inhibitor concentration 5000 nm): 80.389%
- relative ALR2 inhibition (ALR2 enzyme [2]; Inhibitor concentration 10000 nm): 89.966%
- HOMA-IR ([3]; After 5 weeks of treatment): 1.66 ± 0.611
- R-QUICKI ([3]; After 5 weeks of treatment): 0.376 ± 0.031
- HbA1c ([3]; After 5 weeks of treatment, mean ± SEM, n = 4): 9.267 ± 0.802
- HOMA-IR ([3]; Final (end of 5 weeks treatment), PGZ 30 mg/Kg, 8d 32 mg/Kg, mean ± SEM, n = 4): 1.66 ± 0.61
- HOMA-IR ([3]; Initial (beginning of treatment), PGZ 30 mg/Kg, 8d 32 mg/Kg, mean ± SEM, n = 4): 4.22 ± 1.58
- HOMA-IR [3, 6]: 4.22 ± 1.577
- R-QUICKI [3, 6]: 0.318 ± 0.013
- HbA1c ([3]; after the induction of T2D, before treatment, mean ± SEM, n = 4): 8.633 ± 0.536
- adipogenic effect at necropsy ([3]; after treatment): clear adipogenic effect
- polydipsia (water consumption) ([3]; daily oral treatment): decreasing the polydipsia after the first week of treatment
- fasting blood glucose, subchronic ([3]; daily oral, 5 weeks): lower blood glucose levels close to the normoglycemia of the healthy group
- redistribution of adipose tissue from visceral to subcutaneous fat ([3]; necropsy): barely perceptible
- Percentage reduction of radical cation ABTS (ABTS assay; 30 µM): -4.0%
- Percentage reduction of radical cation ABTS (ABTS assay; 50 µM): -3.0%
- Percentage reduction of radical cation ABTS (ABTS assay; 70 µM): -4.2%
- Percentage reduction of radical cation ABTS (ABTS assay; 90 µM): -3.6%
- Percentage reduction of radical cation ABTS (ABTS assay; 110 µM): -2.5%
- effect on total antioxidant capacity (TAC) [4]: did not improve TAC
- TAC Equivalent to Trolox [4, 7]: 79.26 ± 17.28 µM
- TAC Equivalent to Trolox [4, 8]: 79.26 ± 17.28 µM
- relative ALR2 inhibition (ALR2 enzyme [5]): 98.000%
- effect on IL-6 and TNF-α levels (IL-6; IL-6 and TNF-α together): highest levels of both cytokines
- IL-6 (IL-6; [7]): 887.53 ± 243.91 pg/mL
- IL-6 (IL-6; [8]): 887.53 ± 243.91 pg/mL
